How the values were obtained:
[1] = molecular target: T1, ToxT (Vibrio cholerae serotype O1, UniProt A5F384); assay type: biochemical; settings: for inhibition of ToxT DNA-binding in dose-response EMSA, compared with virstatin: compounds 10, 1, 0.1 μM, virstatin 100, 10, 1, 0.1 μM
T1 construct: made in house; host or cells: E. coli BL21-CodonPlus (DE3)-RIL
T1 sequence (A5F384 1-276): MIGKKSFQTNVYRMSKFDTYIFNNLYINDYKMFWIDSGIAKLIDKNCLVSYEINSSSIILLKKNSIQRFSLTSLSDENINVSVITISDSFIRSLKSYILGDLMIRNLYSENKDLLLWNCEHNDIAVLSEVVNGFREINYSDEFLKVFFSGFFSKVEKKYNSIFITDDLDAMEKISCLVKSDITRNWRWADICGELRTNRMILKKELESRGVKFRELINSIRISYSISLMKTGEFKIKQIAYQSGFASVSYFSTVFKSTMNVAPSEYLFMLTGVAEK

[2] = tested on: V. cholerae classical strain O395; experiment: Autoagglutination assay of O395 cultures; assay type: cell-based, Vibrio cholerae
[3] = molecular target: T1, ToxT; experiment: Competition STD NMR with virstatin as indicator; assay type: binding; settings: 20 μM ToxT, 100 μM virstatin; based on KD of virstatin and decrease in STD signal; read-out: calculated Ki
Method: (§1) Virstatin was solubilized in DMSO-d6 and compounds 5a and 3b in DMSO, at working stock concentrations of 35.5 mM, 394 mM, and 50.5 mM, respectively. Purified ToxT in protein buffer (20 mM Tris, 1 mM EDTA, 320 mM NaCl, pH 7.5) was used at a final concentration of 20 μM. All samples contained 50 μM 3-(Trimethylsilyl)-1-propanesulfonic acid sodium salt (TSP) as an internal standard and 5% D2O. All NMR experiments were carried out on a Bruker Avance 600 MHz or 700 MHz spectrometer equipped with a TCI cryogenic probe. Samples were stored at 4 °C prior to acquisition.
Virstatin was used as the STD indicator at a concentration of 100 μM. Compounds 5a and 3b were added at concentrations of 20–200 μM. STD spectra were obtained as above, with a saturation time of 3 seconds. The calculation of the competitive inhibition was as follows[60]:
where CI is the concentration of inhibitor with unknown KD (compound 5a or 3b), CL is the concentration of ligand with known KD (virstatin), KD is that of virstatin, and i is the inhibition expressed as a fraction: [drawing 6] .

[4] = tested on: tcpA-lacZ; experiment: β-galactosidase reporter assay of tcpA-lacZ transcriptional fusion; assay type: cell-based, Vibrio cholerae; settings: 5 μM and 0.5 μM
[5] = molecular target: T1, ToxT; experiment: STD NMR determination of KD; assay type: binding
Method: as §1
KD determination followed the protocol outlined by Angulo et al.[57]. For on-resonance spectra, the protein was saturated at 500 Hz or 583.33 Hz for the 600 MHz and 700 MHz NMR spectrometers, respectively, for 1–4 seconds utilizing a train of 50 ms Gaussian pulses. For off-resonance spectra, the sample was irradiated at −2000 Hz. The total relaxation delay was 7 seconds. Data acquisition consisted of 128 scans and 32,768 points. The STD-effect was calculated by measuring the intensity of the virstatin aromatic proton peaks in the on- and off-resonance spectra:
The KD of virstatin was calculated using Michaelis-Menten kinetics. The STD-AF0 was plotted as a function of the ligand concentration to construct the binding (Langmuir) isotherm: […]

SMILES	inhibition of ToxT DNA-binding in dose-response EMSA, compared with virstatin [1]	autoagglutination of O395 cultures ([2]; 50 nM)	autoagglutination of O395 cultures ([2]; 0.5 μM)	also measured
Cc1cccc2cccc(/C=C/CC(=O)O)c12 [3b]	inhibited DNA-binding more strongly than virstatin	inhibited	completely abolished detectable autoagglutination	Ki [3]: 10 µM
Cc1cccc2cccc(CCC(=O)O)c12 [4a]	inhibited DNA-binding more strongly than virstatin	inhibited	completely abolished detectable autoagglutination	
Cc1cccc2cccc(CCCC(=O)O)c12 [4b]	inhibited DNA-binding more strongly than virstatin	inhibited	completely abolished detectable autoagglutination	
Cc1cccc2c1C(CCC(=O)O)CCC2 (stereo not shown) [5a]	inhibited DNA-binding more strongly than virstatin	inhibited	completely abolished detectable autoagglutination	Ki [3]: 31 µM
CCCCCC/C=C\CCCCCCCC(=O)O [cis-palmitoleic acid, reference compound]				inhibition of tcpA transcription (relative β-galactosidase activity of tcpA-lacZ) [4]: essentially no effect; autoagglutination of O395 cultures ([2]; 0.5 μM and 0.05 μM): no effect
CCCCCCCC/C=C\CCCCCCCC(=O)O [oleic acid, reference compound]				inhibition of tcpA transcription (relative β-galactosidase activity of tcpA-lacZ) [4]: essentially no effect; autoagglutination of O395 cultures ([2]; 0.5 μM and 0.05 μM): no effect
O=C(O)CCCN1C(=O)c2cccc3cccc(c23)C1=O [virstatin, reference compound]			did not	Kd ([5]; from STD spectra of aromatic protons Ha,b): 483 ± 109 µM; Kd ([5]; from STD spectra of aromatic protons He,f): 331 ± 65 µM; ToxT binding to tcpA promoter DNA (EMSA) ([1]; 100 μM compound, 0.78 μM ToxT): prevented ToxT from binding DNA

Source: article PMC5362913, “A new class of inhibitors of the AraC family virulence regulator Vibrio cholerae ToxT” (Scientific Reports, 2017)
